Measured values from patent US20250161201A1, “COSMETIC COMPOSITION” (THE BOOTS COMPANY PLC, priority 2022, published 2025).

Legend:
[1] = tested on: normal human epidermal keratinocytes (NHEK); assay: Preliminary cytotoxicity assay (WST-8) in keratinocytes; assay type: cell-based; details: 24 hours treatment, WST-8, ingredient on its own
Experimental: Normal human epidermal keratinocytes (NHEK) were seeded in 24-well plates and placed in culture medium (Keratinocyte-serum free media (SFM) supplemented with Epidermal Growth Factor at concentration 0.025 ug/ml and Pituitary extract at concentration of 0.05 mg/ml) for 24 hours. To determine suitable non-toxic ingredient concentrations, a cytotoxicity assay was first carried out where the NHEKs were treated with ingredients or ingredient blends for 24 hours before being incubated with WST-8 (highly water-soluble tetrazolium salt) which is reduced to a water-soluble orange coloured product (formazan) by viable, living cells and is quantified by optical density measurement at 450 nm using a spectrophotometer (VERSAmax, Molecular Devices). This reduction is proportional to the number of living cells and their metabolic activity

[2] = tested on: Interleukin-8 (IL-8) mRNA; assay: IL-8 mRNA expression by RT-qPCR in NHEK; assay type: cell-based, human; details: 24 hours, used on its own, vs media only control
Experimental: Interleukin 8 is a measurable biomarker for inflammation. The effectiveness of the presently described compositions in reducing inflammation, and promoting skin barrier repair, are assessed by measuring the reduction in the expression of Interleukin-8 (IL-8) in the skin cells tested. Over expression of IL-8 in the epidermis can lead to disruption of epidermal homeostasis i.e. disruption of the skin cell differentiation, proliferation and desquamation processes.
In the present experiment, the effects of compounds were assessed in normal human epidermal keratinocytes (NHEK). More specifically, the effects of these compounds were evaluated using real time polymerase chain reaction (RT-qPCR) technology. […]
IL-8 mRNA expression was analysed using RT-qPCR as part of this array. […] The amount and quality of mRNA was evaluated using capillary electrophoresis with a Bioanalyzer 2100 (Agilent technologies). […] The cDNA quantities were then diluted if necessary, to achieve equal amount of cDNA concentration in each test sample, before carrying out PCR (Polymerase Chain Reaction) using the LightCycler (trade name) system (commercially available from Roche Molecular System Inc.) according to the supplier's instructions. […] The more copies of DNA/cDNA that have been produced through PCR, the more SYBR Green molecules will bind the DNA/cDNA and the higher the level of fluorescence. […]

NC(=O)c1cccnc1 [Niacinamide, niacinamide]
maximum concentration usable without causing a loss in viability or death of the epidermal keratinocytes [1]: 500 ppm
increase of IL-8 mRNA expression [2]: 18%
